# Experiments:
# [1] = tested on: Mycobacterium tuberculosis; assay: Antimycobacterial activity against Mycobacterium africanum measured up to 2 weeks; type: functional; conditions: variant africanum, 336 h, time weeks <=2
# [2] = tested on: Mycobacterium tuberculosis; assay: Antimycobacterial activity Mycobacterium bovis BCG measured up to 2 weeks; type: functional; conditions: variant bovis BCG, 336 h, time weeks <=2
# [3] = tested on: Mycobacterium tuberculosis; assay: Antimycobacterial activity against Mycobacterium bovis BCG; type: functional, organism-based; conditions: variant bovis BCG
# [4] = tested on: Mycobacterium tuberculosis; assay: Antimycobacterial activity against Mycobacterium bovis BCG assessed as inhibition of bacteria at 30 ug/ml by nitrate reductase assay; type: functional; conditions: variant bovis BCG
compound,measurement,setting,value
O=C(O)CCCCCC1NC(=O)CS1 (centres undefined),MIC,[1],0.2 µM
same,MIC,[2],1.3 µM
O=C(O)CN1C(=O)/C(=C/c2ccc(Cl)cc2)SC1=S,IC50,[3],7.4 µg/mL
Cc1nc(-c2cnccn2)sc1C(=O)NN1C(=O)CSC1c1ccccc1 (centres undefined),inhibition at 30 µg/mL,[4],62%

# Source: ChEMBL document CHEMBL4813957, “Antitubercular properties of thiazolidin-4-ones - A review” (Eur J Med Chem, 2021)
